This note sets out measurements from US20220280476A1, “KCNT1 INHIBITORS AND METHODS OF USE” (Praxis Precision Medicines, Inc., priority 2019, published 2022).

As a reminder, the IC50 is the concentration at which inhibition is half-maximal.

The test has as its target T1, KCNT1 (KNa1.1, Slack) (Homo sapiens, UniProt Q5JUK3).
T1 construct: expressed in transfected cells; host or cells: HEK-TREX (tetracycline-inducible HEK cell line)
T1 sequence (Q5JUK3 1-1230): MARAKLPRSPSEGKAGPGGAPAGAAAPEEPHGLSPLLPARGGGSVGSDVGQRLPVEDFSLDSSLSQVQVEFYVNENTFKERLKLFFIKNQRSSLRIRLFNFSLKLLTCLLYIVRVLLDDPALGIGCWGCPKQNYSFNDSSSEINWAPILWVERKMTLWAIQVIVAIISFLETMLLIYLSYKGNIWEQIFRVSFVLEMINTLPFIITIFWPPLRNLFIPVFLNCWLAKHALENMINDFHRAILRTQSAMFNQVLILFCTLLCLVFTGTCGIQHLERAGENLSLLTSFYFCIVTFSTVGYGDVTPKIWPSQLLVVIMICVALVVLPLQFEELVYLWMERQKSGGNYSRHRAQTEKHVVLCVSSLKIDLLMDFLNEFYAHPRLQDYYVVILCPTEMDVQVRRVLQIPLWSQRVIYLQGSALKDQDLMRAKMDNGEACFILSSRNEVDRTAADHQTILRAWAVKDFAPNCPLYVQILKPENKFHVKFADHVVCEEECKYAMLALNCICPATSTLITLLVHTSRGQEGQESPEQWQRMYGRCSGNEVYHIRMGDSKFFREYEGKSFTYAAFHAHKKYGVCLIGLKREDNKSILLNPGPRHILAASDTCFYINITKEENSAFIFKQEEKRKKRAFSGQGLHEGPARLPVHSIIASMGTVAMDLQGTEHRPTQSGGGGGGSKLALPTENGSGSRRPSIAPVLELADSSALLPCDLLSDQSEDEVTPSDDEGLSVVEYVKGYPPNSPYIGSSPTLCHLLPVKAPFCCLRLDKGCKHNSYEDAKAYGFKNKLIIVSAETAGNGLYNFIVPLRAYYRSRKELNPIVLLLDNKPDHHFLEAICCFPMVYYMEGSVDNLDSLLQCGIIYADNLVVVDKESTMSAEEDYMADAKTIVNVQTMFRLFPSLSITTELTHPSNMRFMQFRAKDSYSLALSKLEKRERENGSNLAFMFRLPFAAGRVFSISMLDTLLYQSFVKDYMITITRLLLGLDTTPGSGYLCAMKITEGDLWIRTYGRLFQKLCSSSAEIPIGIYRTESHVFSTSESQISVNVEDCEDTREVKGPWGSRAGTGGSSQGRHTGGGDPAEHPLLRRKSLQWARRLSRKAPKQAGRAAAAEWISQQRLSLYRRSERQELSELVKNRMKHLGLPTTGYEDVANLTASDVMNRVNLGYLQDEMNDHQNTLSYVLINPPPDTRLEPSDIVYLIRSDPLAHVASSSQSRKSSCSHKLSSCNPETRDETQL
In words: KCNT1-WT-Basal patch clamp assay (SyncroPatch 384PE, HEK-TREX inducible cell line). The class given is cell-based. The conditions noted are these: tetracycline inducible HEK-TREX cells; perforated patch; holding -80 mV, 100 ms step to 0 mV; room temperature; read-out: KCNT1 WB IC50. As for the experimental part:
KCNT1-WT-Basal—Patch Clamp Assay
Inhibition of KCNT1 (KNa1.1, Slack) was evaluated using a tetracycline inducible cell line (HEK-TREX). Currents were recorded using the SyncroPatch 384PE automated, patch clamp system. Pulse generation and data collection were performed with PatchController384 V1.3.0 and DataController384 V1.2.1 (Nanion Technologies). The access resistance and apparent membrane capacitance were estimated using built-in protocols. Current were recorded in perforated patch mode (10 μM escin) from a population of cells. The cells were lifted, triturated, and resuspended at 800,000 cells/ml. The cells were allowed to recover in the cell hotel prior to experimentation. Currents were recorded at room temperature. The external solution contained the following (in mM): NaCl 105, NMDG 40, KCl 4, MgCl2 1, CaCl2 5 and HEPES 10 (pH=7.4, Osmolarity ˜300 mOsm). The extracellular solution was used as the wash, reference and compound delivery solution. The internal solution contained the following (in mM): NaCl 70, KF 70, KCl 10, EGTA 5, HEPES 5 and Escin 0.01 (pH=7.2, Osmolarity ˜295 mOsm). Escin is made at a 5 mM stock in water, aliquoted, and stored at −20° C. The compound plate was created at 2× concentrated in the extracellular solution. The compound was diluted to 1:2 when added to the recording well. The amount of DMSO in the extracellular solution was held constant at the level used for the highest tested concentration. A holding potential of −80 mV with a 100 ms step to 0 mV was used. Mean current was measured during the step to 0 mV. […] The average mean current from 3 sweeps was calculated and the % inhibition of each compound was calculated. The % Inhibition as a function of the compound concentration was fit with a Hill equation to derive IC50, slope, min and max parameters. If KCNT1 inhibition was less than 50% at the highest tested concentration or if an IC50 could not be calculated, then a percent inhibition was reported in place of the IC50.
On to `O=C(N[C@H]1CCc2cc(Cl)ccc21)c1ccc(F)cc1` (single isomer, unassigned) [Compound II-41], for which the IC50 was not below 20000 nM.

`CNS(=O)(=O)Nc1ccc(C(=O)N[C@@H]2CCc3cc(Cl)ccc32)cc1` [Compound II-32]: the IC50 was not above 1000 nM.

`CS(=O)(=O)Cc1ccc(C(=O)NC2CCc3cc(Cl)ccc32)cc1` (single isomer, unassigned) [Compound II-6, N-(5-chloroindan-1-yl)-4-(methylsulfonylmethyl)benzamide]: the IC50 was in the range of 1000 to 20000 nM.

In the case of `COCCS(=O)(=O)c1ccc(C(=O)N[C@@H]2CCc3cc(Cl)ccc32)s1` [Compound I-47], the IC50 was not above 1000 nM.

`O=C(N[C@@H]1CCc2cc(Cl)ccc21)c1ccc(S(=O)(=O)N2CCCC2)s1` [Compound I-17]: the IC50 was not above 1000 nM.

For the molecule `CS(=O)(=O)Nc1ccc(C(=O)NC2CCc3cc(C(F)(F)F)ccc32)cc1` (single isomer, unassigned) [Compound II-58, 4-(methanesulfonamido)-N-[5-(trifluoromethyl)indan-1-yl]benzamide], the IC50 was more than 20000 nM.

With `NC(=O)c1ccc(C(=O)N[C@H]2CCCc3cc(Cl)ccc32)s1` (single isomer, unassigned) [Compound I-30], the IC50 is not below 20000 nM.

As to `COc1ccc(C(=O)NC2CCc3cc(Cl)ccc32)cc1` (single isomer, unassigned) [Compound II-7, N-(5-chloroindan-1-yl)-4-methoxy-benzamide], the IC50 is not below 20000 nM.

In the case of `O=C(N[C@@H]1CCc2cc(Cl)ccc21)c1ccc(S(=O)(=O)N2CC[C@H](O)C2)s1` [Compound I-41], the half-inhibitory concentration (IC50) is not above 1000 nM.

As for `Cc1oc(S(N)(=O)=O)cc1C(=O)N[C@@H]1CCc2cc(Cl)ccc21` [Compound I-11], the IC50 was not below 20000 nM.

Take `CS(=O)(=O)c1ccc(C(=O)N[C@@H]2CCc3cc(Cl)ccc32)cc1F` [Compound II-35]: the IC50 is not above 1000 nM.

Regarding `CNC(=O)c1ccc(C(=O)N[C@@H]2CCc3cc(Cl)ccc32)s1` [Compound I-28], the 50% inhibitory concentration (IC50) was not above 1000 nM.

`O=C(N[C@@H]1CCc2cc(Cl)ccc21)c1cccc(F)c1O` [Compound III-9]: the half-inhibitory concentration (IC50) is not above 1000 nM.

`NC(=O)c1ccc(C(=O)N[C@@H]2CCc3cc(Cl)ccc32)s1` [Compound I-20]: the concentration for half-maximal inhibition (IC50) was not above 1000 nM.

Turning to `CCS(=O)(=O)N(C)c1ccc(C(=O)N[C@@H]2CCc3cc(Cl)ccc32)cc1` [Compound II-13], the 50% inhibitory concentration (IC50) is not above 1000 nM.

`Cn1cc(S(N)(=O)=O)cc1C(=O)N[C@@H]1CCc2cc(Cl)ccc21` [Compound I-7]: the IC50 is not below 20000 nM.

In the case of `NC(=O)c1ccc(C(=O)N[C@@H]2CCc3cc(Cl)ccc32)cc1` [Compound II-26], the IC50 lay in the range of 1000 to 20000 nM.

With `CS(=O)(=O)Nc1ccc(C(=O)NC2CCc3cc(F)ccc32)cc1` (single isomer, unassigned) [Compound II-59, N-[5-fluoroindan-1-yl]-4-(methanesulfonamido)benzamide], the IC50 was more than 20000 nM.

Take `CO[C@@H]1CCN(S(=O)(=O)c2ccc(C(=O)N[C@@H]3CCc4cc(Cl)ccc43)s2)C1` [Compound I-46]: the IC50 is not above 1000 nM.

As to `CS(=O)(=O)Nc1ccc(C(=O)NC2CCc3cc(C(F)(F)F)ccc32)cc1` (single isomer, unassigned) [Compound II-56, 4-(methanesulfonamido)-N-[5-(trifluoromethyl)indan-1-yl]benzamide], the concentration for half-maximal inhibition (IC50) is not above 1000 nM.

Turning to `CS(=O)(=O)c1ccc(C(=O)N[C@@H]2CCc3cc(Cl)ccc32)cc1` [Compound II-22], the IC50 was not above 1000 nM.

As to `NS(=O)(=O)c1cc(C(=O)N[C@@H]2CCc3cc(Cl)ccc32)cs1` [Compound I-6], the IC50 was not above 1000 nM.

Regarding `O=C(N[C@@H]1CCc2cc(Cl)ccc21)c1ccc(S(=O)(=O)C2CC2)s1` [Compound I-21], the IC50 was not above 1000 nM.

With `COc1ccc(C(=O)NC2CCc3cc(Cl)ccc32)cc1` (single isomer, unassigned) [Compound II-8, N-(5-chloroindan-1-yl)-4-methoxy-benzamide], the IC50 fell in the range of 1000 to 20000 nM.

In the case of `CS(=O)(=O)c1ncc(C(=O)N[C@@H]2CCc3cc(Cl)ccc32)s1` [Compound I-27], the 50% inhibitory concentration (IC50) is not above 1000 nM.

For the molecule `O=C(N[C@@H]1CCc2cc(Cl)ccc21)c1ccccc1O` [Compound III-3], the IC50 was not above 1000 nM.

As to `NS(=O)(=O)c1ccc(C(=O)N[C@@H]2CCc3cc(Cl)ccc32)cc1` [Compound II-25], the IC50 is not above 1000 nM.

In the case of `CN(C)CCN(c1ccc(C(=O)N[C@@H]2CCc3cc(Cl)ccc32)cc1)S(C)(=O)=O` [Compound II-44], the concentration for half-maximal inhibition (IC50) was in the range of 1000 to 20000 nM.

As for `CS(=O)(=O)N(CCOC(F)(F)F)c1ccc(C(=O)N[C@@H]2CCc3cc(Cl)ccc32)cc1` [Compound II-46], the IC50 was not below 20000 nM.

As to `O=C(N[C@@H]1CCc2cc(Cl)ccc21)c1ccc(NS(=O)(=O)C2CC2)cc1` [Compound II-11, N-[(1R)-5-chloroindan-1-yl]-4-(cyclopropylsulfonylamino)benzamide], the IC50 lay in the range of 1000 to 20000 nM.

As to `CS(=O)(=O)c1ccc(C(=O)N[C@@H]2CCCc3cc(Cl)ccc32)s1` (single isomer, unassigned) [Compound I-25], the half-inhibitory concentration (IC50) was not below 20000 nM.

`NS(=O)(=O)c1ccc(C(=O)N[C@@H]2CCCc3cc(Cl)ccc32)s1` (single isomer, unassigned) [Compound I-33]: the IC50 was not below 20000 nM.

In the case of `CCS(=O)(=O)c1ccc(C(=O)N[C@@H]2CCc3cc(Cl)ccc32)s1` [Compound I-34], the IC50 is not above 1000 nM.

As to `CN(C)C(=O)CN(c1ccc(C(=O)N[C@@H]2CCc3cc(Cl)ccc32)cc1)S(C)(=O)=O` [Compound II-49], the concentration for half-maximal inhibition (IC50) lay within 1000 to 20000 nM.

For the molecule `Cc1cc(S(N)(=O)=O)oc1C(=O)N[C@@H]1CCc2cc(Cl)ccc21` [Compound I-12], the IC50 is not below 20000 nM.

Take `Cc1oc(C(=O)N[C@@H]2CCc3cc(Cl)ccc32)cc1S(N)(=O)=O` [Compound I-9]: the 50% inhibitory concentration (IC50) is 1000 to 20000 nM.

Consider `COc1ccc(C(=O)NC2CCc3cc(Cl)ccc32)c(O)c1` (single isomer, unassigned) [Compound III-2, N-(5-chloroindan-1-yl)-2-hydroxy-4-methoxy-benzamide], for which the concentration for half-maximal inhibition (IC50) was not above 1000 nM.

Turning to `CS(=O)(=O)Nc1ccc(C(=O)N[C@@H]2CCc3cc(Cl)ccc32)cc1` [Compound II-4, N-[(1R)-5-chloroindan-1-yl]-4-(methanesulfonamido)benzamide], the concentration for half-maximal inhibition (IC50) was not above 1000 nM.

For `O=C(N[C@@H]1CCc2cc(Cl)ccc21)c1cccc(C(F)(F)F)c1O` [Compound III-10], the half-maximal inhibitory concentration (IC50) is not above 1000 nM.

As to `O=C(N[C@@H]1CCc2cc(Cl)ccc21)c1cnc(Cl)s1` [Compound I-37], the IC50 was not above 1000 nM.

Regarding `Cn1nc(C2CC2)cc1C(=O)N[C@@H]1CCc2cc(Cl)ccc21` [Compound I-2], the IC50 lay within 1000 to 20000 nM.

Consider `O=C(N[C@@H]1CCc2cc(Cl)ccc21)c1ccc(NS(=O)(=O)C(F)(F)F)cc1` [Compound II-12], for which the IC50 is not below 20000 nM.
